Source: patent US20090068290A1, “BIFEPRUNOX DOSES FOR TREATING SCHIZOPHRENIA” (priority 2006, published 2009)

Assays:
Assay type in all cases: in vivo, human
[1] = system: adult subjects with schizophrenia; experiment: BPRS psychosis cluster score, Clinical Study Two; conditions: LOCF; for Change from Baseline in BPRS Psychosis Cluster Score, Mean (SD) / Change from Baseline in BPRS Psychosis Cluster Score, Median: Risperidone 6 mg, ITT population
Method: Rating scale assessments were performed weekly, except for week 5, to measure the change from baseline to endpoint of the PANSS total score. Other assessments included: PANSS positive symptom subscale score, PANSS negative symptom subscale score, PANSS general pschopathology subscale score, BPRS total score, BPRS psychosis score, the CGI-S score, the CGI-I score, responder rates based on the PANSS total score, and the Calgary Depression Scale for Schizophrenia (CDSS). […]
Subjects who completed this study had the option to continue in the long-term. […] Risperidone-treated subjects were titrated from 2 mg to 6 mg daily over a three-day period and were subsequently maintained at 6 mg/day for the remainder of the treatment period. […] Blood samples were also obtained at Screening/Baseline, Week 3, and Week 6 for clinical laboratory assessments.

[2] = Body weight, Clinical Study One; conditions: Risperidone 6 mg
Method: Statistical testing of the change from Baseline in weight was performed using similar methodology to that used for the secondary efficacy parameters (an ANCOVA model with factors for treatment and weight at Baseline). Pairwise comparisons of the bifeprunox treatment groups versus placebo were all statistically significant (bifeprunox 5 mg [p=0.025], bifeprunox 10 mg [p=0.009] and bifeprunox 20 mg [p=0.031] for the difference between bifeprunox and placebo mean change from Baseline in weight at Endpoint.

[3] = system: adult subjects with schizophrenia; experiment: CGI Severity of Illness score, Clinical Study One; conditions: Risperidone 6 mg, ITT population
Method: There were five treatment groups in this study. […] Study medication was administered once daily. After Baseline measurements were performed, the titration phase was begun. Bifeprunox treated subjects were titrated up to 5 mg, 10 mg or 20 mg according to a standardized titration schedule (Day 1: 0.125 mg, Day 2: 0.25 mg, Day 3: 0.5 mg, Day 4: 1.0 mg, Day 5: 2.0 mg, Day 6: 5.0 mg, Day 7: 10.0 mg, Day 8: 20 mg). When the assigned dose was reached, subjects were maintained at that dose for the remainder of the six-week treatment period.
The change in the Positive and Negative Symptom Scale (PANSS) total score, from baseline to endpoint, was the primary outcome measure. Secondary efficacy measures included: PANSS positive, PANSS negative, PANSS general psychopathology (GPP) score, PANSS-derived Brief Psychiatric Rating Scale (BPRS) score, Clinical Global Impressions-Severity of Illness (CGI-S), CGI-Improvement (CGI-I) scores, and responder rates. Safety and tolerability evaluations included extrapyramidal symptoms (EPS), weight gain, lipid profile, and serum prolactin.

[4] = system: adult subjects with schizophrenia; experiment: PANSS total score, Clinical Study Three (6-week, olanzapine-referenced); conditions: Olanzapine 15 mg, LOCF, ITT
Method: There were four treatment arms in this study, approximately 144 subjects per arm. […] After completing the Single-Blind Placebo Lead-in Period of at least three days, bifeprunox-treated subjects were titrated from 0.25 mg up to 20 mg/day or 30 mg/day according to a standardized titration scheme over a seven- or eight-day period, respectively. When the assigned dose was reached, subjects were maintained at that dose for the remainder of the six week treatment period. […] Subjects were hospitalized (if not already inpatients) after eligibility for study entry was verified, starting from the Screening Visit until at least 10 days after Baseline. Subjects could be hospitalized longer than 10 days if considered medically necessary by the Investigator. Rating scale assessments for efficacy and abnormal movement disorders were done weekly except for Week 5. Safety assessments were performed at Screening, during treatment and at the end of the study. Subject satisfaction with study medication was assessed at Week 6. Samples of whole blood were obtained at Weeks 2, 4, and 6 for determination of bifeprunox in plasma.
Test Product, Dose and Mode of Administration: Bifeprunox tablets, total daily dose 20 mg or 30 mg (one 20 mg tablet and one 10 mg tablet) administered orally using a once daily dosing regimen.

[5] = system: adult subjects with schizophrenia; experiment: PANSS general psychopathology subscale score, Clinical Study Three; conditions: LOCF; for Change from Baseline in PASS General Psychopathology Subscale Score, Mean (SD) / Change from Baseline in PASS General Psychopathology Subscale Score, Median: Olanzapine 15 mg, ITT population
Text: SECONDARY OBJECTIVES To assess the efficacy of bifeprunox in treating schizophrenia using the Positive Symptom sub-scale score of the PANSS, the Negative Symptom sub-scale score of the PANSS, the General Psychopathology sub-scale of the PANSS, Brief Psychiatric Rating Scale (BPRS) total score derived from the PANSS, BPRS psychosis score derived from the PANSS, the Clinical Global Impression Severity of Illness score (CGI-S), the Clinical Global Impression Improvement score (CGI-I), CGI-I responder rate, PANSS responder rate based on the PANSS total score, Calgary Depression Scale for Schizophrenia (CDSS), and Subject Satisfaction rating.
There were four treatment arms in this study, approximately 144 subjects per arm. […] After completing the Single-Blind Placebo Lead-in Period of at least three days, bifeprunox-treated subjects were titrated from 0.25 mg up to 20 mg/day or 30 mg/day according to a standardized titration scheme over a seven- or eight-day period, respectively. When the assigned dose was reached, subjects were maintained at that dose for the remainder of the six week treatment period. […] Subjects were hospitalized (if not already inpatients) after eligibility for study entry was verified, starting from the Screening Visit until at least 10 days after Baseline. Subjects could be hospitalized longer than 10 days if considered medically necessary by the Investigator. Rating scale assessments for efficacy and abnormal movement disorders were done weekly except for Week 5. […] Subject satisfaction with study medication was assessed at Week 6.

## Cc1nc2n(c(=O)c1CCN1CCC(c3noc4cc(F)ccc34)CC1)CCCC2 [Risperidone, risperidone, reference compound]
[1]; Week 1
  Change from Baseline in BPRS Psychosis Cluster Score, Mean (SD): −2.3 (2.4)
  Change from Baseline in BPRS Psychosis Cluster Score, Median: −2
[1]; Week 2
  Change from Baseline in BPRS Psychosis Cluster Score, Mean (SD): −3.6 (3.0)
  Change from Baseline in BPRS Psychosis Cluster Score, Median: −4
[1]; Week 3
  Change from Baseline in BPRS Psychosis Cluster Score, Mean (SD): −4.3 (3.4)
  Change from Baseline in BPRS Psychosis Cluster Score, Median: −4
[1]; Week 4
  Change from Baseline in BPRS Psychosis Cluster Score, Mean (SD): −4.7 (3.6)
  Change from Baseline in BPRS Psychosis Cluster Score, Median: −5
[1]; Week 6/Endpoint
  Change from Baseline in BPRS Psychosis Cluster Score, Mean (SD): −4.9 (4.0)
  Change from Baseline in BPRS Psychosis Cluster Score, Median: −5
[1]; risperidone 6 mg, ITT
  mean change (SD) from Baseline to Endpoint in BPRS psychosis cluster score: −4.9 (4.0)
[2]
  mean weight change (increase): 4.8 lb
  subjects who decreased their weight by ≧7%: No subjects
  subjects who increased their weight by ≧7%: 13%
[3]; Endpoint LOCF
  Change from Baseline in CGI Severity of Illness Score, Mean (S.D.): −0.76 (0.93)
  Change from Baseline in CGI Severity of Illness Score, Median: 0.0
[3]; Week 1, LOCF
  Change from Baseline in CGI Severity of Illness Score, Mean (S.D.): −0.37 (0.68)
  Change from Baseline in CGI Severity of Illness Score, Median: 0.0
[3]; Week 2, LOCF
  Change from Baseline in CGI Severity of Illness Score, Mean (S.D.): −0.60 (0.83)
  Change from Baseline in CGI Severity of Illness Score, Median: 0.0
[3]; Week 3, LOCF
  Change from Baseline in CGI Severity of Illness Score, Mean (S.D.): −0.70 (0.81)
  Change from Baseline in CGI Severity of Illness Score, Median: 0.0
[3]; Week 4, LOCF
  Change from Baseline in CGI Severity of Illness Score, Mean (S.D.): −0.69 (0.85)
  Change from Baseline in CGI Severity of Illness Score, Median: 0.0

## Cc1cc2c(s1)Nc1ccccc1N=C2N1CCN(C)CC1 [Olanzapine, olanzapine, reference compound]
[4]; Week 1
  Change from Baseline in PANSS Total Score, Mean (SD): −9.3 (11.2)
  Change from Baseline in PANSS Total Score, Median: −6
[4]; Week 2
  Change from Baseline in PANSS Total Score, Mean (SD): −15.1 (13.6)
  Change from Baseline in PANSS Total Score, Median: −12
[4]; Week 3
  Change from Baseline in PANSS Total Score, Mean (SD): −19.3 (15.8)
  Change from Baseline in PANSS Total Score, Median: −18
[4]; Week 4
  Change from Baseline in PANSS Total Score, Mean (SD): −20.0 (16.5)
  Change from Baseline in PANSS Total Score, Median: −18
[4]; Week 6/Endpoint
  Change from Baseline in PANSS Total Score, Mean (SD): −22.0 (18.2)
  Change from Baseline in PANSS Total Score, Median: −21
[5]; Week 1
  Change from Baseline in PASS General Psychopathology Subscale Score, Mean (SD): −4.5 (6.2)
  Change from Baseline in PASS General Psychopathology Subscale Score, Median: −3
[5]; Week 2
  Change from Baseline in PASS General Psychopathology Subscale Score, Mean (SD): −7.2 (7.8)
  Change from Baseline in PASS General Psychopathology Subscale Score, Median: −6
[5]; Week 3
  Change from Baseline in PASS General Psychopathology Subscale Score, Mean (SD): −9.3 (8.3)
  Change from Baseline in PASS General Psychopathology Subscale Score, Median: −8
[5]; Week 4
  Change from Baseline in PASS General Psychopathology Subscale Score, Mean (SD): −9.6 (8.6)
  Change from Baseline in PASS General Psychopathology Subscale Score, Median: −9
[5]; Week 6/Endpoint
  Change from Baseline in PASS General Psychopathology Subscale Score, Mean (SD): −10.5 (9.4)
  Change from Baseline in PASS General Psychopathology Subscale Score, Median: −9
[5]; olanzapine 15 mg, ITT
  mean change (SD) from Baseline to Endpoint in PANSS general psychopathology subscale score: −10.5 (9.4)
